Consider 19 compounds from patent US10899754B2, “Modulators of indoleamine 2,3-dioxygenase” (GLAXOSMITHKLINE INTELLECTUAL PROPERTY DEVELOPMENT LIMITED, priority 2016, dated 2021).

The target in data set [1] is indoleamine 2, 3-dioxygenase (IDO1) (Homo sapiens, UniProt P14902). Kind of data set: IDO1 PBMC RapidFire MS assay (kynurenine detection by mass spectrometry). It is filed as cell-based. Details: to induce the expression of indoleamine 2, 3-dioxygenase (IDO1); host or cells: human PBMC stimulated with IFN-gamma and LPS. The following applies: human PBMC stimulated with IFN-γ and LPS, 2 days, pIC50, read-out: PBMC PXC50 (converted). On the procedure:
IDO1 PBMC RapidFire MS Assay
(§1) Compounds of the present invention were tested via high-throughput cellular assays utilizing detection of kynurenine via mass spectrometry and cytotoxicity as end-points. For the mass spectrometry and cytotoxicity assays, human peripheral blood mononuclear cells (PBMC) (PB003F; AllCells®, Alameda, Calif.) were stimulated with human interferon-γ (IFN-γ) (Sigma-Aldrich Corporation, St. Louis, Mo.) and lipopolysaccharide from Salmonella minnesota (LPS) (Invivogen, San Diego, Calif.) to induce the expression of indoleamine 2, 3-dioxygenase (IDO1). Compounds with IDO1 inhibitory properties decreased the amount of kynurenine produced by the cells via the tryptophan catabolic pathway. Cellular toxicity due to the effect of compound treatment was measured using CellTiter-Glo® reagent (CTG) (Promega Corporation, Madison, Wis.), which is based on luminescent detection of ATP, an indicator of metabolically active cells.
(§2) In preparation for the assays, test compounds were serially diluted 3-fold in DMSO from a typical top concentration of 1 mM or 5 mM and plated at 0.5 μL in 384-well, polystyrene, clear bottom, tissue culture treated plates with lids (Greiner Bio-One, Kremsmünster, Austria) to generate 11-point dose response curves. Low control wells (0% kynurenine or 100% cytotoxicity) contained either 0.5 μL of DMSO in the presence of unstimulated (−IFN-γ/−LPS) PBMCs for the mass spectrometry assay or 0.5 μL of DMSO in the absence of cells for the cytotoxicity assay, and high control wells (100% kynurenine or 0% cytotoxicity) contained 0.5 μL of DMSO in the presence of stimulated (+IFN-γ/+LPS) PBMCs for both the mass spectrometry and cytotoxicity assays.
(§3) Frozen stocks of PBMCs were washed and recovered in RPMI 1640 medium (Thermo Fisher Scientific, Inc., Waltham, Mass.) supplemented with 10% v/v heat-inactivated fetal bovine serum (FBS) (Thermo Fisher Scientific, Inc., Waltham, Mass.), and 1× penicillin-streptomycin antibiotic solution (Thermo Fisher Scientific, Inc., Waltham, Mass.). The cells were diluted to 1,000,000 cells/mL in the supplemented RPMI 1640 medium. 50 μL of either the cell suspension, for the mass spectrometry assay, or medium alone, for the cytotoxicity assay, were added to the low control wells, on the previously prepared 384-well compound plates, resulting in 50,000 cells/well or 0 cells/well respectively. IFN-γ and LPS were added to the remaining cell suspension at final concentrations of 100 ng/ml and 50 ng/ml respectively, and 50 μL of the stimulated cells were added to all remaining wells on the 384-well compound plates. The plates, with lids, were then placed in a 37° C., 5% CO2 humidified incubator for 2 days.
(§4) Following incubation, the 384-well plates were removed from the incubator and allowed to equilibrate to room temperature for 30 minutes. For the cytotoxicity assay, CellTiter-Glo® was prepared according to the manufacturer's instructions, and 40 μL were added to each plate well. After a twenty minute incubation at room temperature, luminescence was read on an EnVision® Multilabel Reader (PerkinElmer Inc., Waltham, Mass.). For the mass spectrometry assay, 10 μL of supernatant from each well of the compound-treated plates were added to 40 μL of acetonitrile, containing 10 μM of an internal standard for normalization, in 384-well, polypropylene, V-bottom plates (Greiner Bio-One, Kremsmünster, Austria) to extract the organic analytes. Following centrifugation at 2000 rpm for 10 minutes, 10 μL from each well of the acetonitrile extraction plates were added to 90 μL of sterile, distilled H2O in 384-well, polypropylene, V-bottom plates for analysis of kynurenine and the internal standard on the RapidFire 300 (Agilent Technologies, Santa Clara, Calif.) and 4000 QTRAP MS (SCIEX, Framingham, Mass.). MS data were integrated using Agilent Technologies' RapidFire Integrator software, and data were normalized for analysis as a ratio of kynurenine to the internal standard. […]

The subject of data set [2] is human peripheral blood mononuclear cells (PBMC). Kind of data set: PBMC cytotoxicity assay (CellTiter-Glo). It is filed as cell-based. Conditions: 2 days, pCC50. Here is the method: as §1, §2, §3, §4
Background: ATP-based viability assays read luminescence as a measure of living cells.

The structures appear in SMILES notation. Where only a bound is given, the exact number is not on record here.

Sequence of indoleamine 2, 3-dioxygenase (IDO1) (P14902 whole entry): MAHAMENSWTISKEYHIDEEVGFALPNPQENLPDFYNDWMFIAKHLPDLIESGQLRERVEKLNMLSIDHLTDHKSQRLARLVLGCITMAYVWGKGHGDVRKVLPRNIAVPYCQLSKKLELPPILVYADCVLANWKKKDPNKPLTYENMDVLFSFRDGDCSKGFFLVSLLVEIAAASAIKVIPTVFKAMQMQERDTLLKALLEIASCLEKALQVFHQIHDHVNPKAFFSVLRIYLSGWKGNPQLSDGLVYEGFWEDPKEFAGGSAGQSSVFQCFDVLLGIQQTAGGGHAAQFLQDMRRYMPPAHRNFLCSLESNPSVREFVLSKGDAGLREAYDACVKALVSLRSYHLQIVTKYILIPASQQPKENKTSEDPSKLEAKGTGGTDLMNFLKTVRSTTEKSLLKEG

With `CC(C)CN(CC(C)C)c1ccc([C@H](C)CC(=O)O)cc1Nc1n[nH]c(C(F)(F)F)n1` [Example 86, (R)-3-(4-(diisobutylamino)-3-((5-(trifluoromethyI)-1H-1,2,4-triazol-3-yl)amino)phenyl)butanoic Acid], the IC50 in data set [1] was 3.98 nM. Moreover, the “PBMC TOX PXC50” value in data set [2] is less than 5.
In the case of `CC(C)CN(c1ccc([C@H](C)CC(=O)O)cc1Nc1n[nH]c(Cl)n1)C1CCOCC1` [Example 34, (R)-3-(3-((5-Chloro-1H-1,2,4-triazol-3-yl)amino)-4-(isobutyl(tetrahydro-2H-pyran-4-yl)amino)phenyl)butanoic Acid], the IC50 in data set [1] was 6.31 nM. Also, the “PBMC TOX PXC50” value in data set [2] is on record as less than 5.
Consider `CC(C)CN(c1ccc([C@H](C)CC(=O)O)cc1Nc1ccc(C(N)=O)nn1)C1CCOCC1` [example 253, (3R)-3-{3-[(6-carbamoylpyridazin-3-yl)amino]-4-[(2-methylpropyl)(oxan-4-yl)amino]phenyl}butanoic acid], for which the IC50 in data set [1] is 316 nM. Besides, the “PBMC TOX PXC50” value in data set [2] is on record as less than 5.
On to `CC(C)CN(c1ccc([C@H](C)CC(=O)O)cc1Nc1ccc(C(F)(F)F)cn1)C1CCOCC1` [Example 27, (R)-3-(4-(isobutyl(tetrahydro-2H-pyran-4-yl)amino)-3-((5-(trifluoromethyl)pyridin-2-yl)amino)phenyl)butanoic Acid], for which the IC50 in data set [1] was 3.98 nM. Also, in data set [2], the “PBMC TOX PXC50” value is given as less than 5.
In the same order, the values of `CO[C@H]1CC[C@@H](N(CC(C)C)c2ccc([C@H](C)CC(=O)O)cc2Nc2n[nH]c(C3CC3)n2)CC1` [Example 63, (R)-3-(3-((5-cyclopropyl-1H-1,2,4-triazol-3-yl)amino)-4-(isobutyl((cis)-4-methoxycyclohexyl)amino)phenyl)butanoic Acid] are 6.31 nM and less than 5.
On to `CC(C)CN(c1ccc([C@H](C)CC(=O)O)cc1Nc1nc(C(F)(F)F)ns1)C1CCN(C(=O)C2CC2)CC1` [Example 64, (R)-3-(4-((1-(cyclopropanecarbonyl)piperidin-4-yl) (isobutyl)amino)-3-((3-(trifluoromethyl)-1,2,4-thiadiazol-5-yl)amino)phenyl)butanoic Acid], for which, in data set [1], the IC50 was 1 nM. Besides, the “PBMC TOX PXC50” value in data set [2] is reported as less than 5.
Regarding `CC(C)CN(c1ccc([C@H](C)Cc2nnn[nH]2)cc1Nc1nc(C(F)(F)F)ns1)C1CCOCC1` [Example 99, (R)-4-(1-(1H-tetrazol-5-yl)propan-2-yl)-N^1-isobutyl-N^1-(tetrahydro-2H-pyran-4-yl)-N^2-(3-(trifluoromethyl)-1,2,4-thiadiazol-5-yl)benzene-1,2-diamine], in data set [1], the IC50 is 1.26 nM. Also, the “PBMC TOX PXC50” value in data set [2] is reported as less than 5.
`COCc1nc(Nc2cc([C@H](C)CC(=O)O)ccc2N(CC(C)C)[C@H]2CC[C@@H](OC)CC2)n[nH]1` (racemic) [example 243, (3RS)-3-(3-{[5-(methoxymethyl)-1H-1,2,4-triazol-3-yl]amino}-4-[(2-methylpropyl)[(1rs&,4rs&)-4-methoxycyclohexyl]ami-no]phenyl)butanoic acid]: the IC50 in data set [1] was 31.6 nM. The “PBMC TOX PXC50” value in data set [2] is less than 5.
As for `CO[C@H]1CC[C@H](N(CC(C)C)c2ccc([C@H](C)CC(=O)O)cc2Nc2n[nH]c(C(N)=O)n2)CC1` (racemic) [example 223, (3RS)-3-{3-[(5-carbamoyl-1H-1,2,4-triazol-3-yl)amino]-4-[(2-methylpropyl)[(1rs&,4rs&)-4-methoxycyclohexyl]ami-no]phenyl}butanoic acid], the IC50 in data set [1] was 501 nM. The “PBMC TOX PXC50” value in data set [2] was less than 5.
Taken in the same sequence, the figures for `CC(C)CN(CCCCCN)c1ccc([C@H](C)CC(=O)O)cc1Nc1nc(C(F)(F)F)ns1` [example 229, (3R)-3-{4-[(5-aminopentyl)(2-methylpropyl)amino]-3-{[3-(trifluoromethyl)-1,2,4-thiadiazol-5-yl]amino}phenyl}butanoic acid] were 50.1 nM and less than 5.
On to `CO[C@H](C)CN(CC(C)C)c1ccc([C@H](C)CC(=O)O)cc1Nc1nc(C(F)(F)F)ns1` [Example 96, (R)-3-(4-(isobutyl((R)-2-methoxypropyl)amino)-3-((3-(trifluoromethyl)-1,2,4-thiadiazol-5-yl)amino)phenyl)butanoic Acid], for which the IC50 in data set [1] is 10 nM. For the same compound, in data set [2], the “PBMC TOX PXC50” value was less than 5.
Taken in the same sequence, the figures for `CC(C)CN(c1ccc([C@H](C)CC(=O)O)cc1Nc1n[nH]c(C#N)n1)C1CCOCC1` [example 226, (3R)-3-{3-[(5-cyano-1H-1,2,4-triazol-3-yl)amino]-4-[(2-methylpropyl)(oxan-4-yl)amino]phenyl}butanoic acid] were 126 nM and less than 5.
Turning to `COCc1ccc(Nc2cc([C@H](C)CC(=O)O)ccc2N(CC(C)C)[C@H]2CC[C@H](OC)CC2)nc1` (racemic) [example 247, (3RS)-3-(3-{[5-(methoxymethyl)pyridin-2-yl]amino}-4-[(2-methylpropyl)[(1rs&,4rs&)-4-methoxycyclohexyl]ami-no]phenyl)butanoic acid], the IC50 in data set [1] was 31.6 nM. Besides, the “PBMC TOX PXC50” value in data set [2] is listed as less than 5.
Taken in the same sequence, the figures for `CC(C)CN(c1ccc([C@H](C)CC(=O)O)cc1Nc1cnc(C(N)=O)cn1)C1CCOCC1` [example 264, (3R)-3-{3-[(5-carbamoylpyrazin-2-yl)amino]-4-[(2-methylpropyl)(oxan-4-yl)amino]phenyl}butanoic acid] were 79.4 nM and less than 5.
In the case of `CC(C)CN(c1ccc([C@H](C)CC(=O)O)cc1Nc1n[nH]c(C(N)=O)n1)[C@H]1CC[C@H](O)CC1` (racemic) [example 225, (3RS)-3-{3-[(5-carbamoyl-1H-1,2,4-triazol-3-yl)amino]-4-[(2-methylpropyl)[(1rs&,4rs&)-4-hydroxycyclohexyl]amino]phenyl}butanoic acid], in data set [1], the IC50 was 7940 nM. Moreover, in data set [2], the “PBMC TOX PXC50” value is given as less than 5.
As for `CC(C)CN(c1ccc([C@H](C)CC(=O)O)cc1Nc1nc(C(=O)NC2CC2)c[nH]1)C1CCOCC1` [example 236, (3R)-3-(3-{[4-(cyclopropylcarbamoyl)-1H-imidazol-2-yl]amino}-4-[(2-methylpropyl)(oxan-4-yl)amino]phenyl)butanoic acid], the IC50 in data set [1] is greater than 10000 nM. Further, the “PBMC TOX PXC50” value in data set [2] was less than 5.
For `COCc1ccc(Nc2cc([C@H](C)CC(=O)O)ccc2N(CC(C)C)[C@H]2CC[C@@H](OC)CC2)nc1` [Example 60, (R)-3-(4-(isobutyl((1s,4S)-4-methoxycyclohexyl)amino)-3-((5-(methoxymethyl)pyridin-2-yl)amino)phenyl)butanoic Acid], in data set [1], the IC50 is 10 nM. Besides, the “PBMC TOX PXC50” value in data set [2] was less than 5.
Taken in the same sequence, the figures for `CC(C)CN(c1ccc([C@H](C)CC(=O)O)cc1Nc1ccc(Cl)cn1)C1CCOCC1` [Example 8, (R)-3-(3-((5-chloropyridin-2-yl)amino)-4-(isobutyl(tetrahydro-2H-pyran-4-yl)amino)phenyl)butanoic Acid] were 0.794 nM and less than 5.
With `CNC(=O)c1nc(Nc2cc([C@H](C)CC(=O)O)ccc2N(CC(C)C)[C@H]2CC[C@@H](OC)CC2)n[nH]1` (racemic) [example 246, (3RS)-3-(3-{[5-(methylcarbamoyl)-1H-1,2,4-triazol-3-yl]amino}-4-[(2-methylpropyl)[(1rs&,4rs&)-4-methoxycyclohexyl]ami-no]phenyl)butanoic acid], in data set [1], the IC50 was 25.1 nM. Also, the “PBMC TOX PXC50” value in data set [2] was less than 5.
